This is an account of results in paper PMC6804443 (Acta Pharmaceutica Sinica. B, 2019).

Like-named read-outs stand apart in the source and are kept apart here.

Series [1] concerns the target T1, OATP1B3 (Homo sapiens, UniProt Q9NPD5).
T1 sequence (Q9NPD5 1-702): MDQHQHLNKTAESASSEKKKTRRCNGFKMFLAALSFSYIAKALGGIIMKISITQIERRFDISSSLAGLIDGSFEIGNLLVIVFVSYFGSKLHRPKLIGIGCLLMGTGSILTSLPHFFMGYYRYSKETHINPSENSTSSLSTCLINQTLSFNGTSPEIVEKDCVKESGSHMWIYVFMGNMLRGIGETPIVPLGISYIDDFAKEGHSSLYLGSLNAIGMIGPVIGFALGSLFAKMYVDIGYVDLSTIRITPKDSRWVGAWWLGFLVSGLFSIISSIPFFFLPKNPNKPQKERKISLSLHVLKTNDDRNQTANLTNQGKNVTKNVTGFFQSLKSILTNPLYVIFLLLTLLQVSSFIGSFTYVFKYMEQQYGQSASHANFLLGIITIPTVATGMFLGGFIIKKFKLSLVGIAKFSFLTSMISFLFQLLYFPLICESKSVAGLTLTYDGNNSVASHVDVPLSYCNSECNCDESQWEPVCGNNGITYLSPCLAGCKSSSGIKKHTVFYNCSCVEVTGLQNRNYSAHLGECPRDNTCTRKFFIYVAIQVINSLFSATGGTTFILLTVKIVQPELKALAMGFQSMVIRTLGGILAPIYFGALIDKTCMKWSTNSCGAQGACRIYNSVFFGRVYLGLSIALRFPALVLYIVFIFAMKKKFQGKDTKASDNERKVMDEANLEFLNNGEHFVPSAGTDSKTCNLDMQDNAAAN
Briefly: in vitro.

Series [2] deals with T1, OATP1B3. As to conditions: antibiotic as perpetrator, salvianolic acid B (X10) as victim; (Cmax × fu-p × R)/IC50.
The target in another series is T2, UGT2B15 (Homo sapiens, UniProt P54855).
T2 sequence (P54855 24-530): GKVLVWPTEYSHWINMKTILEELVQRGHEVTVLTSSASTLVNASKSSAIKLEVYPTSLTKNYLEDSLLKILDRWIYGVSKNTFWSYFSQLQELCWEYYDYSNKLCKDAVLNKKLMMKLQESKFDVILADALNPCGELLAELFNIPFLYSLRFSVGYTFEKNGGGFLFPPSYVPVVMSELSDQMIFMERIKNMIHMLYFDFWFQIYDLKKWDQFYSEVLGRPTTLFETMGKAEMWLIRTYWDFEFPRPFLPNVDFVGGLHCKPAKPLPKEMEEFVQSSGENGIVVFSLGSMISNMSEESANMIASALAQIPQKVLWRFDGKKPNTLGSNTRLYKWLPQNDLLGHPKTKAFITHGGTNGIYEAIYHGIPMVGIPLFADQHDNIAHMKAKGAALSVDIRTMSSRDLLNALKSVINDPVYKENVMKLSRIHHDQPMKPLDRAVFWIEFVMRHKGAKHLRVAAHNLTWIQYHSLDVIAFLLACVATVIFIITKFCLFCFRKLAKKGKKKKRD
The series is classed as in vitro ADME.

Series [3] addresses T1, OATP1B3. As to conditions: IC50, OATP1B3 [X10], mean ± SD (n = 3).
Series [4] concerns the target T3, OAT1 (Homo sapiens, UniProt Q4U2R8).
T3 sequence (Q4U2R8 1-563): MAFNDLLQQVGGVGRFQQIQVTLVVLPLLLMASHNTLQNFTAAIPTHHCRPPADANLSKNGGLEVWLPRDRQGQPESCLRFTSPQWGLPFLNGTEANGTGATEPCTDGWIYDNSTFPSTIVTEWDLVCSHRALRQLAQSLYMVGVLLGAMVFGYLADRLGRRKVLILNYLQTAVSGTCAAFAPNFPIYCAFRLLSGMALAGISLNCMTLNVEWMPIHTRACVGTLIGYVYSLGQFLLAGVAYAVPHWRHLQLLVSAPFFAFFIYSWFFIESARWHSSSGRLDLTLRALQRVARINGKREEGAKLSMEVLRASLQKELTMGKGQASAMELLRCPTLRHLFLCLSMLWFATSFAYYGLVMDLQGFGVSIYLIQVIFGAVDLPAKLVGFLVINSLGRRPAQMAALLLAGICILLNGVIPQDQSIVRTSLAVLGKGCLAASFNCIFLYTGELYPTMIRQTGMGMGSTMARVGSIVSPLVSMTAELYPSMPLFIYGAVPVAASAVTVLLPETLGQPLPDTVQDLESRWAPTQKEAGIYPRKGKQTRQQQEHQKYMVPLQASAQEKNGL
Briefly: OAT1 inhibition by antibiotics, transfected HEK293 cells, tanshinol as substrate.

Another series deals with ALDH. The series is classed as in vitro ADME. Conditions: human, pooled human liver cytosol.
Series [5] deals with T4, OAT2 (Homo sapiens, UniProt Q9Y694).
T4 sequence (Q9Y694 1-546 isoform Q9Y694-2): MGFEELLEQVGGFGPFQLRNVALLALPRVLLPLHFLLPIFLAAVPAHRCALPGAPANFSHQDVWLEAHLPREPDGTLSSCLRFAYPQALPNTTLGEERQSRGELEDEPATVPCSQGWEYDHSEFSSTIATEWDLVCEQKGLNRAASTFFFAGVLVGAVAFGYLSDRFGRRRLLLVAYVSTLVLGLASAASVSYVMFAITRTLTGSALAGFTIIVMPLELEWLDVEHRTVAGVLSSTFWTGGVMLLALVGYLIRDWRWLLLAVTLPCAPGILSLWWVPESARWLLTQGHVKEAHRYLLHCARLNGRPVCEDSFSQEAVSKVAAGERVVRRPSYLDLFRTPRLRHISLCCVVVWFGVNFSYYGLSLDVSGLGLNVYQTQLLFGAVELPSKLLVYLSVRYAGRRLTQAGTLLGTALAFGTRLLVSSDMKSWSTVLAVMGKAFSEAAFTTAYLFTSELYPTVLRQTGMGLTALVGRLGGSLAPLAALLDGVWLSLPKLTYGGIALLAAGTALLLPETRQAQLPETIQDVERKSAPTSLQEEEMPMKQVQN
Briefly: OAT2 inhibition by antibiotics, transfected HEK293 cells, tanshinol as substrate. In kind it is in vitro ADME.

Series [6] has as its system P450 enzymes, UGTs, SULTs, OATP1B1/1B3, OAT1/3, OCT2, MATE1/2-K, MDR1, BCRP. Conditions: cited from earlier work.
For series [7] the following is noted: XueBiJing compounds, cited from earlier work; for LogD(7.4): pH 7.4.
For series [8] the following is noted: XueBiJing compounds; cited from earlier work.
For series [9] the following is noted: cited from earlier work; for fu-p (unbound fraction in plasma): human plasma; for Cmax / VSS / t1/2 / Major elimination route / fe-U (fraction of dose excreted unchanged into urine): human; for Cmax / VSS / t1/2: XueBiJing 100 mL via 75-min intravenous infusion.
The format of series [10] is in vivo. Conditions: human; XueBiJing at label dose 100 mL.
A further series concerns the target T5, OAT3 (Homo sapiens, UniProt Q8TCC7).
T5 sequence (Q8TCC7 1-542): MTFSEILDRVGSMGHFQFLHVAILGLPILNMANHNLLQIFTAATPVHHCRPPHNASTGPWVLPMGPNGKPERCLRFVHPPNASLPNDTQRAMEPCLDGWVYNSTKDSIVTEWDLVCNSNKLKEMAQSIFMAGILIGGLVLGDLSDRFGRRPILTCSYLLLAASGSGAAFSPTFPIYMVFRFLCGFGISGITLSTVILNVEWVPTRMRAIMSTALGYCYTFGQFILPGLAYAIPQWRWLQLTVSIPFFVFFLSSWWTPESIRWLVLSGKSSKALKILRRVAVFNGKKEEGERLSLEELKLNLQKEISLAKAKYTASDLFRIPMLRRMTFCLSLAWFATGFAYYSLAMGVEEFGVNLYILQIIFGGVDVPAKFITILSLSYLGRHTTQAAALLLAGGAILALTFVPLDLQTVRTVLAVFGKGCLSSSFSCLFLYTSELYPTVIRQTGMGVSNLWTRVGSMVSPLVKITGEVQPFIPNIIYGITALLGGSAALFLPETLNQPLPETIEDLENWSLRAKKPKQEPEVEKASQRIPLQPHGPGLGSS
Briefly: Reported in vitro interaction with OAT3. The series is classed as in vitro ADME. As to conditions: estimated from reported Cmax, fu-p and literature potency.

In a further series the test system is CYP3A4. Conditions: higher concentrations; range over the named compounds and enzymes.
Series [11] concerns the target T4, OAT2. The series is classed as in vitro ADME.
Series [12] addresses T3, OAT1. Briefly: OAT1 inhibition by XueBiJing compounds, transfected HEK293 cells [PAH]. In kind it is in vitro ADME.
The next series relates to CYP2B6. Briefly: CYP2B6 induction by XueBiJing compounds in cryopreserved human hepatocytes. In kind it is in vitro ADME. Conditions: higher concentrations; range over the named compounds and enzymes.

Regarding `Cc1onc(-c2c(F)cccc2Cl)c1C(=O)N[C@@H]1C(=O)N2[C@@H]1SC(C)(C)[C@@H]2C(=O)O` [A19, flucloxacillin], the inhibition – broadly, the drop in the measured response relative to a control, in per cent – at 1000 μmol/L is over 90% at OATP1B3 [1]; 60 to 88% on UGT2B15 (human, cDNA-expressed UGT2B15); at least 90% at OAT1 [4] (human); 56 to 88% in the series on ALDH. The “Inhibition DDI index, OATP1B3” value at OATP1B3 [2] came to 1.07. The IC50 (usually the concentration that gives 50% inhibition) against UGT2B15 was found to be 336 ± 83 µM; against OATP1B3 [3], 26 ± 9 µM; against OAT1 [4], 173 ± 27 µM; in the series on ALDH, 45 ± 6 µM; at OAT2 [5] it was 729 ± 131 µM. The “Inhibition DDI index, OAT1” value on OAT1 [4] (antibiotic as perpetrator, tanshinol (X8) as victim, (Cmax × fu-p × R)/IC50) was 0.16. Moreover, the inhibition at 1000 µM at OAT2 [5] (HEK293, read-out: Inhibition of OAT2) lay in the range of 60 to 84%.

As for `C[C@]12C[C@@H](O)[C@@H]3C[C@@]1(O[C@@H]1O[C@H](CO)[C@@H](O)[C@H](O)[C@H]1O)[C@@]3(COC(=O)c1ccccc1)C(=O)O2` [X4, albiflorin], the “Related metabolism and transport data (substrate status)” value (shortened to “Related metabolism and transport data”) in [6] is listed as “Not the substrate of P450 enzymes, UGTs, SULTs, OATP1B1/1B3, OAT1/3, OCT2, MATE1/2-K, MDR1, or BCRP”. Also, in series [7], the pKa (in general, the pH at which an ionisable group is half protonated) was 12.8 and the “LogD(7.4)” value is reported as −0.9. Also, in series [8], the Membrane permeability result was “Poor”. For the same compound, in [9], the “fu-p (unbound fraction in plasma)” value was 83%, the Cmax (commonly the maximum level reached in the sampled fluid or tissue) was 800 nM, the VSS is 0.08 L/kg and the t1/2 is on record as 0.7 h. In series [9], the Major elimination route result was “Renal excretion, GF-based” and the “fe-U (fraction of dose excreted unchanged into urine)” value was 62%.

For the compound `C[C@@]12C[C@@]3(O)O[C@@H](O1)[C@]1(COC(=O)c4ccccc4)[C@H]3C[C@@]12O[C@@H]1O[C@H](CO)[C@@H](O)[C@H](O)[C@H]1O` [X2, paeoniflorin], the “Related metabolism and transport data” value in [6] is recorded as “Not the substrate of P450 enzymes, UGTs, SULTs, OATP1B1/1B3, OAT1/3, OCT2, MATE1/2-K, MDR1, or BCRP”. Moreover, in series [7], the pKa is recorded as 11.5 and the “LogD(7.4)” value is 0.1. Besides, the “Unbound Cmax” value in series [10] is 15000 nM. Further, the Membrane permeability entry in series [8] is “Poor”. Besides, in series [9], the “fu-p (unbound fraction in plasma)” value is 82%, the Cmax is 18200 nM, the VSS is 0.19 L/kg and the t1/2 was 1.1 h. Further, in series [9], the Major elimination route entry is “Renal excretion, GF-based” and the “fe-U (fraction of dose excreted unchanged into urine)” value is 63%.

For the compound `CC(=O)NC[C@H]1CN(c2ccc(N3CCOCC3)c(F)c2)C(=O)O1` [A29, linezolid], the “DDI index, inhibiting OAT3” value on OAT3 was at least 1.0.

For the compound `CCCCC1(O)OC(=O)C2=C1CCC=C2` (centres unmarked) [X7, senkyunolide G], in the series on CYP3A4, the “mRNA-T/U ratio, CYP3A4” value was 4.0 to 9.6. Also, the “Related metabolism and transport data” value in series [6] is reported as “Poor UGT substrate”. Besides, at OAT2 [11] (100 μmol/L), the “Inhibition of OAT2” value was over 50%. Besides, the IC50 on OAT2 [11] (read-out: IC50, OAT2 [prostaglandin F2α], mean ± SD (n = 3)) came out at 51 ± 5 µM. Moreover, at OAT1 [12] (100 μmol/L), the “Inhibition of OAT1” value is listed as over 50%. In addition, the IC50 on OAT1 [12] (read-out: IC50, OAT1 [PAH], mean ± SD (n = 3)) stood at 11 ± 3 µM. Moreover, in series [7], the pKa is given as 10.7 and the “LogD(7.4)” value was 1.5. In addition, the Membrane permeability entry in series [8] is on record as “Good”. In [9], the “fu-p (unbound fraction in plasma)” value is reported as 3%, the maximum concentration (Cmax) was 500 nM, the VSS is 0.10 L/kg and the t1/2 was 2.3 h. The Major elimination route entry in [9] was “Hepatic glucuronidation”. Moreover, the “mRNA-T/U ratio, CYP2B6” value with CYP2B6 fell in the range of 4.0 to 9.6.

As to `Cn1nnnc1SCC1=C(C(=O)O)N2C(=O)[C@@H](NC(=O)[C@H](O)c3ccccc3)[C@H]2SC1` [A11, cefamandole], the inhibition at 1000 μmol/L against OATP1B3 [1] is over 90%. The “Inhibition DDI index, OATP1B3” value at OATP1B3 [2] is recorded as 1.70. In addition, at OATP1B3 [3], the midpoint of inhibition, the IC50, lay at 53 ± 20 µM. Besides, the “DDI index, inhibiting OAT3” value at OAT3 is listed as at least 1.0.
